According to paper PMC2442905 (British Journal of Pharmacology, 2008):
Where two headings read alike, the source gives them in different places. One block for each compound: values may come before it.

What was measured:
[1] = Drug concentrations in plasma of guinea-pigs; type: in vivo; conditions: anaesthetized guinea-pig
[2] = test system: anaesthetized guinea-pigs (QTc interval of the ECG); assay: Anaesthetized guinea-pig QT; type: in vivo; conditions: for QTc increase of 5% over vehicle (risk signal): low, medium and high doses; for increase (change) of baseline-corrected QTc over vehicle / mean baseline-corrected QTc: highest dose level; for increase (change) of baseline-corrected QTc over vehicle / mean baseline-corrected QTc / effect on QT/QTc interval in the guinea-pig model (in words): i.v. infusion over 10 min
[3] = molecular target: T1, hERG potassium channels stably expressed in CHO-K1 cells (Homo sapiens, UniProt Q12809); conditions: for hERG inhibition (in words): group C drugs: at the highest concentration permitted by solubility
T1 sequence (Q12809 whole entry): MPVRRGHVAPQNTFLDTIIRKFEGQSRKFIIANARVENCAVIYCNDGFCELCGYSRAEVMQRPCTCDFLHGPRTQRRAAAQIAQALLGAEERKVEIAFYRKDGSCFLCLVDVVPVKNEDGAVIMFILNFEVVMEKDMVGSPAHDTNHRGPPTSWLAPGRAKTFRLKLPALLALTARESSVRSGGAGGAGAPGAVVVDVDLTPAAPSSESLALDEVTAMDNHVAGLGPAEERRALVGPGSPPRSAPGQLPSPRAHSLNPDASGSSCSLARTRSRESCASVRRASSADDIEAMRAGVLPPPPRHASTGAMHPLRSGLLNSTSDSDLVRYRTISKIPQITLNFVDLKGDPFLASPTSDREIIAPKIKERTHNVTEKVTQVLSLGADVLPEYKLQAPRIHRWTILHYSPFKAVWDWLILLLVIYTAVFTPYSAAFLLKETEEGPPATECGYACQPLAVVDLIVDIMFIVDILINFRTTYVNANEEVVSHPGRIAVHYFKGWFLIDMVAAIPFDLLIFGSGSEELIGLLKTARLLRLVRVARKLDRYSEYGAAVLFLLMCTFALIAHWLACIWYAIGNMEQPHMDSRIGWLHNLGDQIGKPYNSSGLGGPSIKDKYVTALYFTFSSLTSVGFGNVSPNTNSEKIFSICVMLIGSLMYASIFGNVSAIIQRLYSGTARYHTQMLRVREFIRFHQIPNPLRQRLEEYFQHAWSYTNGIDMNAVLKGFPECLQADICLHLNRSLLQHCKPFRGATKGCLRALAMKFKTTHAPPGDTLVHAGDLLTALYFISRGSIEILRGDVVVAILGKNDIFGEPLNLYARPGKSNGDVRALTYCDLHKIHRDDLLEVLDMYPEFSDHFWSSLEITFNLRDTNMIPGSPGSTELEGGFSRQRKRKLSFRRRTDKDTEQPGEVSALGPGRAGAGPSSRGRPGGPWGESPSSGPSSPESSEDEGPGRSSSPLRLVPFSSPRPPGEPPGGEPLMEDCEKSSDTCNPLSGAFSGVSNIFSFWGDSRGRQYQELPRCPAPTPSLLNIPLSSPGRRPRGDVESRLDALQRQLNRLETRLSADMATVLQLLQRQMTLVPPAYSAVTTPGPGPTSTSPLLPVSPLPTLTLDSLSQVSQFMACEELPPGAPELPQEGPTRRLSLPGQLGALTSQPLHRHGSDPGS

[4] = molecular target: T1, hERG potassium channels stably expressed in CHO-K1 cells; assay: cell-based; conditions: 25 °C, 400-ms pulse protocol
plasma proteins = conditions: human; cited from earlier work
[5] = read-out: Human plasma Cmax; single 400 mg dose in humans; cited from earlier work
[6] = test system: anaesthetized guinea-pigs; assay: Heart rate and mean blood pressure recordings in anaesthetized guinea-pigs; type: in vivo, guinea-pig; conditions: limited the maximum dose to 3 mg kg^−1

SMILES: C[C@H](CS)C(=O)N1CCC[C@H]1C(=O)O [Captopril]
increase (change) of baseline-corrected QTc over vehicle [2]: −7.3% | mean baseline-corrected QTc [2]: −6.0% | effect on QT/QTc interval in the guinea-pig model (in words) [2]: QTc actually dropped below vehicle | QTc increase of 5% over vehicle (risk signal) [2]: did not reach the 5% increase of QTc | Peak plasma level ([1]; 3 mg kg^−1 i.v. over 10 min): 57.8±1.6 (2) μm | Peak plasma level ([1]; 10 mg kg^−1 i.v. over 10 min): 142±15 (2) μm | Peak plasma level ([1]; 30 mg kg^−1 i.v. over 10 min): 313±112 (2) μm | hERG inhibition (in words) [3]: no hERG inhibition was observed

SMILES: O=C(CCCN1CCC(O)(c2ccc(Cl)cc2)CC1)c1ccc(F)cc1 [Haloperidol]
Free safety margin (hERG IC50/ free Cmax) ([3]; human, pH 7.4): 1.4 | Total safety margin (hERG IC50/ total Cmax) ([3]; human, pH 7.4): 0.1 | Protein binding (plasma proteins): 90%

SMILES: C[C@@H]1CN(c2c(F)c(N)c3c(=O)c(C(=O)O)cn(C4CC4)c3c2F)C[C@H](C)N1 [Sparfloxacin]
increase (change) of baseline-corrected QTc over vehicle [2]: 19.6% | mean baseline-corrected QTc [2]: 20.0% | Peak plasma level ([1]; 3 mg kg^−1 i.v. over 10 min): 23.5±4.2 (3) μm | Peak plasma level ([1]; 10 mg kg^−1 i.v. over 10 min): 80.4±9.1 (5) μm | Peak plasma level ([1]; 30 mg kg^−1 i.v. over 10 min): 159.4±22.4 (4) μm | Free safety margin (hERG IC50/ free Cmax) ([3]; human, pH 7.4): 3.757 | Total safety margin (hERG IC50/ total Cmax) ([3]; human, pH 7.4): 2.477 | IC50 [4]: 24 µM

SMILES: CC/C(=C(\c1ccccc1)c1ccc(OCCN(C)C)cc1)c1ccccc1 [Tamoxifen]
mean baseline-corrected QTc [2]: 8.4% | Peak plasma level ([1]; 3 mg kg^−1 i.v. over 10 min): 3.8±0.8 (4) μm | Peak plasma level ([1]; 10 mg kg^−1 i.v. over 10 min): 10.5±2.1 (5) μm | Peak plasma level ([1]; 30 mg kg^−1 i.v. over 10 min): 60.0±20.0 (5) μm

SMILES: CC(C)(C)c1ccc(C(O)CCCN2CCC(C(O)(c3ccccc3)c3ccccc3)CC2)cc1 (stereo not shown) [Terfenadine]
haemodynamic effects (in words) [6]: marked bradycardia and resultant hypotension

SMILES: COc1ccc(CCN(C)CCCC(C#N)(c2ccc(OC)c(OC)c2)C(C)C)cc1OC (stereo not shown) [Verapamil]
QTc increase of 5% over vehicle (risk signal) [2]: did not reach the 5% increase of QTc

Continued, in another order:

Peak plasma level ([1]; 1 mg kg^−1 i.v. over 10 min): 18.2±1.5 (5) μm | Peak plasma level ([1]; 3 mg kg^−1 i.v. over 10 min): 41.3±4.8 (4) μm | Peak plasma level ([1]; 10 mg kg^−1 i.v. over 10 min): 145.9±16.6 (5) μm
SMILES: CC(C)NCC(O)c1ccc(NS(C)(=O)=O)cc1 (racemic) [D,L-Sotalol]

Peak plasma level ([1]; 3 mg kg^−1 i.v. over 10 min): 4.8±0.5 (5) μm | Peak plasma level ([1]; 10 mg kg^−1 i.v. over 10 min): 14.6±1.4 (4) μm | Peak plasma level ([1]; 20 mg kg^−1 i.v. over 10 min): 30.3±2.5 (5) μm
SMILES: CC1(C)S[C@@H]2[C@H](NC(=O)[C@H](N)c3ccc(O)cc3)C(=O)N2[C@H]1C(=O)O [Amoxicillin]

Peak plasma level ([1]; 1 mg kg^−1 i.v. over 10 min): 31.1±2.3 (5) μm | Peak plasma level ([1]; 3 mg kg^−1 i.v. over 10 min): 74.6±2.1 (5) μm | Peak plasma level ([1]; 10 mg kg^−1 i.v. over 10 min): 468±78 (4) μm
SMILES: CC(=O)Oc1ccccc1C(=O)O [Aspirin]
QTc increase of 5% over vehicle (risk signal) [2]: did not reach the 5% increase of QTc | hERG inhibition (in words) [3]: no hERG inhibition was observed | Free safety margin (hERG IC50/ free Cmax) ([3]; hERG IC50 divided by human free plasma Cmax): >4512 | Free safety margin (hERG IC50/ free Cmax) ([3]; hERG IC50 divided by human free plasma Cmax, listed as aspirin): above 300 | IC50 [4]: > 100000 µM

Peak plasma level ([1]; 0.1 mg kg^−1 i.v. over 10 min): 0.037±0.023 (4) μm | Peak plasma level ([1]; 0.3 mg kg^−1 i.v. over 10 min): 0.129±0.032 (4) μm | Peak plasma level ([1]; 1 mg kg^−1 i.v. over 10 min): 0.496±0.085 (5) μm
SMILES: COc1cc(N)c(Cl)cc1C(=O)NC1CCN(CCCOc2ccc(F)cc2)CC1OC (stereo not shown) [Cisapride]

Peak plasma level ([1]; 0.03 mg kg^−1 i.v. over 10 min): 0.55±0.07 (3) μm | Peak plasma level ([1]; 0.1 mg kg^−1 i.v. over 10 min): 0.62±0.05 (5) μm | Peak plasma level ([1]; 0.3 mg kg^−1 i.v. over 10 min): 1.21±0.34 (5) μm
SMILES: O=C(CCCN1CC=C(n2c(=O)[nH]c3ccccc32)CC1)c1ccc(F)cc1 [Droperidol]

Peak plasma level ([1]; 1 mg kg^−1 i.v. over 10 min): 2.08±0.28 (4) μm | Peak plasma level ([1]; 5 mg kg^−1 i.v. over 10 min): 30.6±7.2 (4) μm | Peak plasma level ([1]; 10 mg kg^−1 i.v. over 10 min): 80.5±4.0 (5) μm
SMILES: COc1c(N2C[C@@H]3CCCN[C@@H]3C2)c(F)cc2c(=O)c(C(=O)O)cn(C3CC3)c12 [Moxifloxacin]
increase (change) of baseline-corrected QTc over vehicle [2]: 16.8% | mean baseline-corrected QTc [2]: 18.3% | effect on QT/QTc interval in the guinea-pig model (in words) [2]: dose-dependent QTc prolongation | Cmax [5]: ~7 µM

Peak plasma level ([1]; 0.3 mg kg^−1 i.v. over 10 min): 0.50±0.03 (3) μm | Peak plasma level ([1]; 1 mg kg^−1 i.v. over 10 min): 1.84±0.41 (3) μm | Peak plasma level ([1]; 3 mg kg^−1 i.v. over 10 min): 4.65±0.40 (5) μm
SMILES: CC(C)NCC(O)COc1cccc2ccccc12 (stereo not shown) [Propranolol]
QTc increase of 5% over vehicle (risk signal) [2]: did not reach the 5% increase of QTc | Protein binding (plasma proteins): 85%

Peak plasma level ([1]; 3 mg kg^−1 i.v. over 10 min): 6.2±0.08 (3) μm | Peak plasma level ([1]; 10 mg kg^−1 i.v. over 10 min): 27.8±8.0 (5) μm
SMILES: C=C[C@H]1C[N@@]2CC[C@H]1C[C@@H]2[C@@H](O)c1ccnc2ccc(OC)cc12 [Quinidine]

Peak plasma level ([1]; 0.1 mg kg^−1 i.v. over 10 min): 1.1±0.2 (4) μm | Peak plasma level ([1]; 0.3 mg kg^−1 i.v. over 10 min): 1.2±0.1 (2) μm | Peak plasma level ([1]; 1 mg kg^−1 i.v. over 10 min): 4.0±2.2 (2) μm
SMILES: O=C1Cc2cc(CCN3CCN(c4nsc5ccccc45)CC3)c(Cl)cc2N1 [Ziprasidone]
Free safety margin (hERG IC50/ free Cmax) ([3]; human, pH 7.4): 286.45 | Total safety margin (hERG IC50/ total Cmax) ([3]; human, pH 7.4): 0.573
